Values joined by “and” are separate entries in the source; they are usually repeats but may differ in a detail not shown here. Equal entries are not always repeated.
Tests used:
[1] = tested on: human CD 14+ monocytes; settings: VB-201 5 μg/ml prior to chemotaxis assay; MCP-1 (50 ng/ml), MIP-1a (50 ng/ml) or RANTES (100 ng/ml); FIG. 1A
[2] = tested on: moderate to severe plaque psoriasis; test: randomized, double-blind Phase II clinical study in plaque psoriasis (PGA, PtGA, PASI); assay type: in vivo, human; settings: for average reduction of PASI score: 12 weeks
Description: Patients were screened for eligibility and, up to 28 days later, at the baseline visit, randomized to one of three treatment groups (1:1:1): VB-201 20 mg/day: VB-201 80 mg/day: placebo/day. Patients consumed 2 capsules per day (VB-201 20 mg+placebo, VB-201 40 mg+40 mg, or 2× placebo). To ensure that the treatment assignments were concealed, all patients received 2 matching capsules of VB-201 or placebo.
The efficacy analyses were performed on the data from a modified intention-to-treat (MITT) population (defined as all patients randomized who received at least one dose of medication and had at least one efficacy evaluation). The safety analyses were performed on all randomized patients who received at least one dose of the drug.
A randomized, double-blind Phase II clinical study was performed in subjects with moderate to severe plaque psoriasis, in order to determine the efficacy of VB-201 in treating this condition. […] Patients underwent a wash-out period following any previous treatments. After screening and establishment of a baseline, eligible subjects were randomly assigned to receive 20 mg per day VB-201, 80 mg per day VB-201 or a daily placebo, for a period of 12 weeks.
Doses were administered orally at breakfast time with food. The maximal dose of VB-201 (80 mg/day) was determined according to earlier tolerability results (see, e.g., Example 4 of WO2011/083465).
Efficacy of each dosage level of VB-201 relative to placebo was determined according to the percentage of patients which achieved at least a 50% or 75% improvement over baseline PASI score at week 12.
Statistical comparisons were performed using a two-sided comparison with a 5% level of significance. All analyses were performed using Statistical Analysis Software (SAS®) Version 9.2.
Categorical analyses of Physician's Global Assessment and Patient's Psoriasis Global Assessment scores at Baseline, Week 8 and Week 12 were analyzed.
The Physician's Global Assessment (PGA) score was based on a 5-point scale with possible outcomes 0=clear, 1=almost clear, 2=mild, 3=moderate and 4=severe.
The Patient's Psoriasis Global Assessment (PtGA) score was based on a 6-point scale with possible outcomes 0=clear, 1=almost clear, 2=mild, 3=moderate, and 4 severe and 5=worst psoriasis has ever been.
The analyses that follow use the categorical nature of the PGA and PtGA, i.e. the 5-point or 6-point ordered scale which was considered more relevant than a continuous approach.
The proportion of patients with baseline, week 8 and week 12 PGA scores 0-3 vs. 4 (Clear or Almost Clear or Mild or Moderate vs. Severe) and PtGA scores of 0-2 vs. 3-5 (Clear or Almost Clear or Mild vs. Moderate or Severe or Worse).
Pairwise comparisons between placebo and each active dose group was made using Fisher's exact tests at the 5% level of significance.

[3] = tested on: LPS and Pam3CSK4 signaling; test: LPS and Pam3CSK4 signaling in human monocytes; assay type: cell-based; settings: FIG. 1B
[4] = tested on: humans; test: tolerability of daily dose in human clinical studies; assay type: in vivo

CCCCCCCCCCCCCCCCOC[C@H](COP(=O)([O-])OCC[N+](C)(C)C)OCCCCC(=O)O [VB-201, 1-hexadecyl-2-(4′-carboxy)butyl-sn-glycero-3-phosphocholine]
human monocyte migration towards chemoattractants [1]: decreases human monocyte migration | PGA decrease from baseline to week 12 versus placebo ([2]; 20 mg): statistically superior to that with placebo | PGA odds ratio, ordered logistic regression under the proportional odds model ([2]; 20 mg and 80 mg groups combined vs placebo, p=0.049, CI=1.00-3.65): 1.91 | Patient Global Assessment decrease from baseline to week 12 versus placebo ([2]; 20 mg, p=0.12): trend for efficacy | PGA 0-3 (No/Almost Clear/Mild/Mod), % of patients ([2]; 20 mg/day, Baseline): 83.87% | PGA 0-3 (No/Almost Clear/Mild/Mod), Freq. ([2]; 20 mg/day, Baseline): 52 | PGA 4 (Severe), % of patients ([2]; 20 mg/day, Baseline): 16.13% | PGA 4 (Severe), Freq. ([2]; 20 mg/day, Baseline): 10 | PtGA 0-2 (No/Almost Clear/Mild), % of patients ([2]; 20 mg/day, Baseline): 11.29% | PtGA 0-2 (No/Almost Clear/Mild), Freq. ([2]; 20 mg/day, Baseline): 7 | PtGA 3-5 (Mod/Severs/Worse), % of patients ([2]; 20 mg/day, Baseline): 88.71% | PtGA 3-5 (Mod/Severs/Worse), Freq. ([2]; 20 mg/day, Baseline): 55 | PGA 0-3 (No/Almost Clear/Mild/Mod), % of patients ([2]; 20 mg/day, Week 8): 96.8% | PGA 0-3 (No/Almost Clear/Mild/Mod), Freq. ([2]; 20 mg/day, Week 8): 60 | PGA 4 (Severe), % of patients ([2]; 20 mg/day, Week 8): 3.2% and 3.23% | PGA 4 (Severe), Freq. ([2]; 20 mg/day, Week 8): 2 | PtGA 0-2 (No/Almost Clear/Mild), % of patients ([2]; 20 mg/day, Week 8): 32.26% | PtGA 0-2 (No/Almost Clear/Mild), Freq. ([2]; 20 mg/day, Week 8): 20 | PtGA 3-5 (Mod/Severs/Worse), % of patients ([2]; 20 mg/day, Week 8): 67.74% | PtGA 3-5 (Mod/Severs/Worse), Freq. ([2]; 20 mg/day, Week 8): 42 | PGA 0-3 (No/Almost Clear/Mild/Mod), % of patients ([2]; 20 mg/day, Week 12/EOT): 95.16% | PGA 0-3 (No/Almost Clear/Mild/Mod), Freq. ([2]; 20 mg/day, Week 12/EOT): 59 | PGA 4 (Severe), % of patients ([2]; 20 mg/day, Week 12/EOT): 4.8% and 4.84% | PGA 4 (Severe), Freq. ([2]; 20 mg/day, Week 12/EOT): 3 | PtGA 0-2 (No/Almost Clear/Mild), % of patients ([2]; 20 mg/day, Week 12/EOT): 30.65% | PtGA 0-2 (No/Almost Clear/Mild), Freq. ([2]; 20 mg/day, Week 12/EOT): 19 | PtGA 3-5 (Mod/Severs/Worse), % of patients ([2]; 20 mg/day, Week 12/EOT): 69.35% | PtGA 3-5 (Mod/Severs/Worse), Freq. ([2]; 20 mg/day, Week 12/EOT): 43 | PGA decrease from baseline to week 12 versus placebo ([2]; 80 mg): trend for efficacy | Patient Global Assessment odds ratio, ordered logistic regression under the proportional odds model ([2]; 80 mg vs. placebo, p=0.047, CI=1.01-3.80): 1.96 | Patient Global Assessment decrease from baseline to week 12 versus placebo ([2]; 80 mg, p=0.02): statistically superior to that with placebo | PGA 0-3 (No/Almost Clear/Mild/Mod), % of patients ([2]; 80 mg/day, Baseline): 79.31% | PGA 0-3 (No/Almost Clear/Mild/Mod), Freq. ([2]; 80 mg/day, Baseline): 46 | PGA 4 (Severe), % of patients ([2]; 80 mg/day, Baseline): 20.69% | PGA 4 (Severe), Freq. ([2]; 80 mg/day, Baseline): 12 | PtGA 0-2 (No/Almost Clear/Mild), % of patients ([2]; 80 mg/day, Baseline): 11.86% | PtGA 0-2 (No/Almost Clear/Mild), Freq. ([2]; 80 mg/day, Baseline): 7 | PtGA 3-5 (Mod/Severs/Worse), % of patients ([2]; 80 mg/day, Baseline): 88.14% | PtGA 3-5 (Mod/Severs/Worse), Freq. ([2]; 80 mg/day, Baseline): 52 | PGA 0-3 (No/Almost Clear/Mild/Mod), % of patients ([2]; 80 mg/day, Week 8): 91.53% | PGA 0-3 (No/Almost Clear/Mild/Mod), Freq. ([2]; 80 mg/day, Week 8): 54 | PGA 4 (Severe), % of patients ([2]; 80 mg/day, Week 8): 8.5% and 8.47% | PGA 4 (Severe), Freq. ([2]; 80 mg/day, Week 8): 5 | PtGA 0-2 (No/Almost Clear/Mild), % of patients ([2]; 80 mg/day, Week 8): 33.90% | PtGA 0-2 (No/Almost Clear/Mild), Freq. ([2]; 80 mg/day, Week 8): 20 | PtGA 3-5 (Mod/Severs/Worse), % of patients ([2]; 80 mg/day, Week 8): 66.1% | PtGA 3-5 (Mod/Severs/Worse), Freq. ([2]; 80 mg/day, Week 8): 39 | PGA 0-3 (No/Almost Clear/Mild/Mod), % of patients ([2]; 80 mg/day, Week 12/EOT): 93.22% | PGA 0-3 (No/Almost Clear/Mild/Mod), Freq. ([2]; 80 mg/day, Week 12/EOT): 55 | PGA 4 (Severe), % of patients ([2]; 80 mg/day, Week 12/EOT): 6.8% and 6.78% | PGA 4 (Severe), Freq. ([2]; 80 mg/day, Week 12/EOT): 4 | PtGA 0-2 (No/Almost Clear/Mild), % of patients ([2]; 80 mg/day, Week 12/EOT): 38.98% | PtGA 0-2 (No/Almost Clear/Mild), Freq. ([2]; 80 mg/day, Week 12/EOT): 23 | PtGA 3-5 (Mod/Severs/Worse), % of patients ([2]; 80 mg/day, Week 12/EOT): 61.0% and 61.02% | PtGA 3-5 (Mod/Severs/Worse), Freq. ([2]; 80 mg/day, Week 12/EOT): 36 | correlation between VB-201 plasma levels and PASI, PGA and PtGA efficacy endpoints ([2]; PGA p=0.04, PtGA p=0.001, FIG. 10): statistically significant dose response | efficacy compared to placebo in subgroups (exploratory analyses) ([2]; baseline PASI 14.3-18.5, age ≦46 years, BSA 16%-24%, psoriasis up to 20 years, no previous immunosuppressants or biologicals, elevated baseline hs-CRP): greater trends for efficacy | time course of the efficacy endpoints ([2]; over 3 months of treatment): continued to improve overtime and had not reached a plateau at 3 months | average reduction of PASI score ([2]; patients in quartile 1 of trough level): about 18% | average reduction of PASI score ([2]; patients in quartile 4 of trough level, p=0.009): about 45% | percent change from baseline in PASI at 12 weeks versus trough level ([2]; sub-population with baseline PASI score of about 14.3 to about 18.5, FIG. 9): significantly dependent on the trough level of VB-201 | PASI 50 response rates and reductions in BSA compared to placebo ([2]; week 12): Trends for favorable efficacy | inhibition of LPS and Pam3CSK4 signaling [3]: inhibition of LPS and Pam3CSK4 signaling | gastrointestinal events ([4]; higher dose (e.g., 160 mg/day) in multiple sub-doses e.g. 12 hours apart, each about 80 mg or less): largely avoided | tolerability ([4]; humans, single daily dose): well tolerated up to a dose of about 80 mg/day | gastrointestinal events (G-I intolerance, mainly nausea and vomiting) ([4]; larger doses (e.g., 160 mg/day) as a single daily dose): associated with certain gastrointestinal events
